# Experimental data reported in article PMC9859815 (Scientific Reports, 2023).
# Like-named read-outs stand apart in the source and are kept apart here.
# How the values were obtained:
# [1] = Single-dose, 2-sequence, 2-period crossover pharmacokinetic/bioequivalence study, fasting oral administration, healthy Chinese subjects (also by CYP2C19 phenotype and gender); type: in vivo; settings: human, plasma, mean ± SD
# Experimental: Forty subjects were randomly divided into two groups, with 20 patients in each group. […] The subjects in each group fasted after 21:00 the night before administration. […] The blood samples were centrifuged at 1700 g (4 °C) for 10 min within 1 h of collection. The centrifuged plasma was immediately aliquoted into 2 tubes with corresponding labels (1 for testing, 1 for backup, the volume of plasma in each tube should not be less than 500 µL) and stored at […] until analysis. The total time from whole blood collection to centrifugation to separate plasma and then stored in […] refrigerator should not exceed 2 h.
# The sample pretreatment method was the protein precipitation method.
# Terminal elimination rate constant λz and the apparent terminal elimination half-life (T1/2) were also needed. AUC0–∞ (the AUC from time 0 to infinity) used the formula: AUC0–∞ = AUC0–t + Ct/λ(T1/2 = 0.693/λz) to calculate.
# SAS 9.4 software was used for statistical analysis.
# [2] = cited from earlier work
# [3] = Pakistani, cited from earlier work
structure (smiles),measurement,setting,value
COc1ccc2[nH]c([S+]([O-])Cc3ncc(C)c(OC)c3C)nc2c1 (centres unmarked) [omeprazole],AUC(0-t),[1]; CYP2C19 EM (N = 12),553 ± 391 ng·h/mL
same,half-life,[1]; CYP2C19 PM (N = 4),2.48 ± 0.24 h
same,Cmax,"[2]; CYP2C19 EM, Caucasians",285 ± 82.9 ng/mL
same,T1/2,"[2]; CYP2C19 EM, Caucasians",0.71 ± 0.1 h
same,AUC0–t,"[2]; CYP2C19 EM, Japanese",618.3 ± 141.9 ng·h/mL
same,Cmax,"[2]; CYP2C19 EM, Japanese",251.1 ± 46.2 ng/mL
same,AUC0–t,"[2]; CYP2C19 EM, Korean",713.49 ± 555.56 ng·h/mL
same,AUC0–t,"[2]; CYP2C19 EM, West Asian",250.5 ± 16.1 ng·h/mL
same,Cmax,"[2]; CYP2C19 EM, West Asians",152.4 ± 9.94 ng/mL
same,T1/2,"[2]; CYP2C19 EM, West Asians",0.9 ± 0.01 h
same,AUC0–t,"[2]; CYP2C19 EM, Whites",635.5 ± 259.7 ng·h/mL
same,T1/2,"[2]; CYP2C19 PM, Caucasians",2.68 ± 0.3 h
same,Cmax,"[2]; CYP2C19 PM, East Asians (so in the source)",538.6 ± 33.5 ng/mL
same,Cmax,"[2]; CYP2C19 PM, Japanese",1070.2 ± 185.3 ng/mL
same,T1/2,"[2]; CYP2C19 PM, Japanese",2.41 ± 0.15 h
same,T1/2,"[2]; CYP2C19 PM, West Asians",2.42 ± 0.18 h
same,AUC0–t,[3]; females,8740 ± 2230 ng·h/mL
same,Cmax,[3]; females,2913 ± 610 ng/mL
same,AUC0–t,[3]; males,6670 ± 4320 ng·h/mL
same,Cmax,[3]; males,2006 ± 980 ng/mL
